# Counter-ions that a name gives are not always drawn.
# Test: Effect of polymer embedding on components of DMEM F12 medium (embedded vs non-embedded form);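 further: qualitative label per medium component: Hygros denotes lower hygroscopicity of the embedded form versus the free form, NA denotes not applicable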
# Assay type: physicochemical
# Conditions: component of DMEM F12 medium embedded in polymer, compared to the non-embedded form
# From the text: For all components the effect of polymer embedding is shown.
# In Table 1, “Hygros” means that if the component is embedded according to the present invention and used in the media composition in its embedded form, the ability of said substance to attract and hold water molecules from the surrounding environment is reduced compared to the non-embedded form.
row,Compound,embedding effect
1,O=C(O)CCCCC1CCSS1 (racemic) [DL-alpha-lipoic acid],Oxid
2,O=C(O)CCCC[C@@H]1SC[C@@H]2NC(=O)N[C@@H]21 [Biotin],Stab
3,C[N+](C)(C)CCO.[Cl-] [Choline chloride],Hygros
4,O.O.O.O.O.O=S(=O)([O-])[O-].[Cu+2] [Copper sulfate 5H2O],Solu
5,O.O.O.O.O.O.O.O.O.O=[N+]([O-])[O-].O=[N+]([O-])[O-].O=[N+]([O-])[O-].[Fe+3] [Ferric nitrate 9H2O],Solu
6,O.O.O.O.O.O.O.O=S(=O)([O-])[O-].[Fe+2] [Ferrous sulfate 7H2O],Solu
7,Nc1nc2ncc(CNc3ccc(C(=O)N[C@@H](CCC(=O)O)C(=O)O)cc3)nc2c(=O)[nH]1 [Folic acid],Stab
8,C[C@H](N)C(=O)O [L-Alanine],Solu
9,NC(=O)C[C@H](N)C(=O)O.O [L-Asparagine H2O],Solu
10,Cl.N[C@@H](CS)C(=O)O.O [L-Cysteine hydrochloride H2O],Solu
11,"Cl.Cl.N[C@@H](CSSC[C@H](N)C(=O)O)C(=O)O [L-Cystine 2HCl (mikronisiert), L-Cystine 2HCl (mikronisiert) aus 200635]",Solu
12,NC(=O)CC[C@H](N)C(=O)O [L-Glutamine],Stab
13,Cl.N[C@@H](Cc1cnc[nH]1)C(=O)O.O [L-Histidine HCl H2O],Solu
14,CC[C@H](C)[C@H](N)C(=O)O [L-Isoleucine],Solu
15,CC(C)C[C@H](N)C(=O)O [L-Leucine],Solu
16,Cl.NCCCC[C@H](N)C(=O)O [L-Lysine hydrochloride],Solu
17,CSCC[C@H](N)C(=O)O [L-Methionine],Solu
18,N[C@@H](Cc1ccc([O-])cc1)C(=O)[O-].O.O.[Na+].[Na+] [L-Tyrosine 2Na],Solu
19,Cl.Cl.NCCCCN [Putrescine 2HCl],Stab
20,Cc1ncc(CO)c(CO)c1O.Cl [Pyridoxine HCl],Stab

# More lines, now with the values ahead:
row,embedding effect,Compound
1,Solu,N[C@@H](Cc1ccccc1)C(=O)O [L-Phenylalanine]
2,Solu,N[C@@H](CO)C(=O)O [L-Serine]
3,Solu,C[C@@H](O)[C@H](N)C(=O)O [L-Threonine]
4,Solu,N[C@@H](Cc1c[nH]c2ccccc12)C(=O)O [L-Thryptophan]
5,Solu,CC(C)[C@H](N)C(=O)O [L-Valine]
6,Oxid,CCCCC/C=C\C/C=C\CCCCCCCC(=O)O [Linoleic acid]
7,Stab,NC(=O)c1cccnc1 [Niacinamide]
8,Stab,Cc1cc2nc3c(=O)[nH]c(=O)nc-3n(C[C@H](O)[C@H](O)[C@H](O)CO)c2cc1C [Riboflavin]
9,Stab,CC(=O)C(=O)[O-].[Na+] [Sodium pyruvate]
10,Stab,Cc1ncc(C[n+]2csc(CCO)c2C)c(N)n1 [Thiamine HCl]
11,Solu,O.O.O.O.O.O.O.O=S(=O)([O-])[O-].[Zn+2] [Zinc sulafte 7H2O]
12,Solu,Vitamin B12

# — US9988600B2, “Cell culture media” (MERCK PATENT GMBH, priority 2013, dated 2018)
